Laboratory results from patent US20100029949A1, “Activator for Peroxisome Proliferator Activated Receptor” (priority 2005, published 2010).

How the values were obtained:
Format in all cases: cell-based
PPAR α = target: T1, PPAR α (Homo sapiens, UniProt Q07869); test: GAL4-hPPAR α (LBD) luciferase reporter transactivation in CV-1 cells; settings: test compound 10^−6 M, control GW-590735 10^−6 M = 100%
T1 construct: A receptor expression plasmid (pSG5-GAL4-hPPAR α or γ or δ (LBD)); expressed in transfected cells; host or cells: CV-1 cells (ATCC)
T1 sequence (Q07869 239-466 limits assumed): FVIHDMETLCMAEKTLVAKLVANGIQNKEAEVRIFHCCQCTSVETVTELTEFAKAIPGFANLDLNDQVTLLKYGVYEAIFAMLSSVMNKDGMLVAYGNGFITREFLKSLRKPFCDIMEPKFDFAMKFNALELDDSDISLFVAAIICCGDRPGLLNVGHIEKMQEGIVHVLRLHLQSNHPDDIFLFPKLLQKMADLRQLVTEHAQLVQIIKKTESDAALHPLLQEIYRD
Experimental: (§1) A receptor expression plasmid (pSG5-GAL4-hPPAR α or γ or δ (LBD)), a luciferase expression plasmid (pUC8-MH100x-4-TK-Luc) and β-galactosidase expression plasmid (pCMX-β-GAL) (Kliewer, S. A., et. al., (1992) Nature, 358:771-774) are transfected into CV-1 cells (ATCC). After gene transfer utilizing a lipofection reagent DMRIE-C or Lipofectamin 2000 (Invitrogen), it is incubated for 42 hours in the presence of the test compound. Then, the luciferase activity and β-GAL activity are measured on the soluble cells. The luciferase activity is calibrated by the β-GAL activity. A relative ligand activity is calculated for each of the PPAR α, γ and δ under the following conditions: a relative activity of PPAR α is calculated in consideration of a luciferase activity (assigned to 100%) of cells treated with the compound GW-590735 (PPARα-selective agonist); a relative activity of PPAR γ is calculated in consideration of a luciferase activity (assigned to 100%) cells treated with Rosiglitazone; and a relative activity of PPAR δ is calculated in consideration of a luciferase activity (assigned to 100%) of cells treated with GW-501516. See the below-described Example 4.
(§2) The PPARδ activating effects of test compounds (compounds of Examples) were measured by the following method: […]
(§3) After gene transfer utilizing a lipofection reagent DMRIE-C or Lipofectamin 2000 (Invitrogen), it is incubated for approx. 40 hours in the presence of the test compound. Then, the luciferase activity and β-GAL activity are measured on the soluble cells. […] A relative ligand activity is calculated for each of the PPAR α, γ and δ under the following conditions: a relative activity of PPAR α is calculated in consideration of a luciferase activity (assigned to 100%) of cells treated with GW-590735 (PPARα-selective agonist); a relative activity of […] is calculated in consideration of a luciferase activity (assigned to 100%) cells treated with Rosiglitazone; and a relative activity of PPARδ is calculated in consideration of a luciferase activity (assigned to 100%) of cells treated with GW-501516.

PPAR γ = target: T2, PPAR γ (Homo sapiens, UniProt P37231); test: GAL4-hPPAR γ (LBD) luciferase reporter transactivation in CV-1 cells; settings: test compound 10^−6 M, control Rosiglitazone 10^−5 M = 100%
T2 construct: A receptor expression plasmid (pSG5-GAL4-hPPAR α or γ or δ (LBD)); expressed in transfected cells; host or cells: CV-1 cells (ATCC)
T2 sequence (P37231 238-503 limits assumed): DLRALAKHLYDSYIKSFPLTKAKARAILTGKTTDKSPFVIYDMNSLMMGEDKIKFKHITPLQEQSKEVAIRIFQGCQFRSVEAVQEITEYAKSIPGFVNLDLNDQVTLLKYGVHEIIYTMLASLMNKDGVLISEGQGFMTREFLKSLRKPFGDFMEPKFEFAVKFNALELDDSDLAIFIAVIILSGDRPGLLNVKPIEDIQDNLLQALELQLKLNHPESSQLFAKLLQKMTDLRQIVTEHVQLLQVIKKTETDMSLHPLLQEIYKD
Experimental: as §1, §2, §3

PPAR δ = target: T3, PPAR δ (Homo sapiens, UniProt Q03181); test: GAL4-hPPAR δ (LBD) luciferase reporter transactivation in CV-1 cells; settings: test compound 10^−6 M, control GW-501516 10^−7 M = 100%
T3 construct: A receptor expression plasmid (pSG5-GAL4-hPPAR α or γ or δ (LBD)); expressed in transfected cells; host or cells: CV-1 cells (ATCC)
T3 sequence (Q03181 211-439 limits assumed): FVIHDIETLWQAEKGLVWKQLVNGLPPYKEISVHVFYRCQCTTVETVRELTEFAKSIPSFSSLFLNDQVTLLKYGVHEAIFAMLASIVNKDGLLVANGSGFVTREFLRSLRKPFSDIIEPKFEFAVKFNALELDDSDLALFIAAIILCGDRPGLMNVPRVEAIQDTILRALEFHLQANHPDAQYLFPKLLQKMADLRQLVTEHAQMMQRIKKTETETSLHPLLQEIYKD
Experimental: as §1, §2, §3

Compound | PPAR α activity: relative value (%) of the test compound to 100% of the control compound (PPAR α) [%] | PPAR γ activity: relative value (%) of the test compound to 100% of the control compound (PPAR γ) [%] | PPAR δ activity: relative value (%) of the test compound to 100% of the control compound (PPAR δ) [%]
Cc1cc2c(CCc3cc(-c4ccc(C(F)(F)F)cc4)nn3C(C)C)noc2cc1OC(C)(C)C(=O)O [Example 1, 2-[3-[2-[1-Isopropyl-3-(4-trifluoromethylphenyl)-1H-pyrazol-5-yl]ethyl]-5-methylbenzisoxazol-6-yloxy]-2-methylpropionic acid] | 62.7 | 5.4 | 84.7
Cc1cc2c(CCc3cc(-c4ccc(C(F)(F)F)cc4)nn3C(C)C)noc2cc1OCC(=O)O [Example 2, 3-[2-[1-Isopropyl-3-(4-trifluoromethylphenyl)-1H-pyrazol-5-yl]ethyl]-5-methylbenzisoxazol-6-yloxyacetic acid] | 103.0 | 13.4 | 94.4
Cc1cc2c(CCc3cn(-c4ccc(C(F)(F)F)cc4)nc3C(C)C)noc2cc1OC(C)(C)C(=O)O [Example 3, 2-[3-[2-[3-Isopropyl-1-(4-trifluoromethylphenyl)-1H-pyrazol-4-yl]ethyl]-5-methylbenzisoxazol-6-yloxy]-2-methylpropionic acid] | 0.2 | 0.3 | 87.8
